What was measured:
Type in all cases: cell-based
GIRK4 [1] = target: T1, GIRK4 (Rattus norvegicus, UniProt P48548); experiment: two-electrode voltage clamp in Xenopus oocytes, homomeric GIRK4 co-expressed with Gβγ
T1 construct: gene Kcnj5

GIRK2 [2] = target: T2, GIRK2 (Mus musculus, UniProt P48542, I82L); experiment: two-electrode voltage clamp in Xenopus oocytes, […] compound
T2 construct: gene Kcnj6

GIRK2 [3] = target: T3, GIRK2 (Mus musculus, UniProt P48542); experiment: two-electrode voltage clamp in Xenopus oocytes, homomeric GIRK2 co-expressed with Gβγ
T3 construct: gene Kcnj6
T3 sequence (P48542 whole entry): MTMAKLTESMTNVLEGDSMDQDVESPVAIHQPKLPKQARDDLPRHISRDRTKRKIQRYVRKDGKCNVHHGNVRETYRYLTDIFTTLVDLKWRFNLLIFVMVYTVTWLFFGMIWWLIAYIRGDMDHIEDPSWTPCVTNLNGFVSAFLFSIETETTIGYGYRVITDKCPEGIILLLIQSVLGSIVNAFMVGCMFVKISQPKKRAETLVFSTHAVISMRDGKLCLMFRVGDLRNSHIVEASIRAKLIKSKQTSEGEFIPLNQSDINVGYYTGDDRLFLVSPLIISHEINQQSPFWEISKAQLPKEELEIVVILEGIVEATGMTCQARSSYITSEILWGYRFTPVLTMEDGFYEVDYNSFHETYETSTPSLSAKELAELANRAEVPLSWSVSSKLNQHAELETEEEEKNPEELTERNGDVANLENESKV
T3 sequence (P62871 2-340 partner): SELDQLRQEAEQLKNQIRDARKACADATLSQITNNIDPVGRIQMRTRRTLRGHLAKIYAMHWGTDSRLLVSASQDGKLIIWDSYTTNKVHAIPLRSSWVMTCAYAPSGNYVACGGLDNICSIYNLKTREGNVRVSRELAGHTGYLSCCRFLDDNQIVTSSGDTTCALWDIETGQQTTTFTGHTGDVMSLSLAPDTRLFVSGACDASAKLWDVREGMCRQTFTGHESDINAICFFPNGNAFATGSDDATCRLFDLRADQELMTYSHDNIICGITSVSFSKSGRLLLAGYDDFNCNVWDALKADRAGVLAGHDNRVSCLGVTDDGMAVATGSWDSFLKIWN
T3 sequence (P63212 2-68 partner): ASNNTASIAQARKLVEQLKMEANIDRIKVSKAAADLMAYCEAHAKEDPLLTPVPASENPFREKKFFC

GIRK4 [4] = target: T4, GIRK4 (Rattus norvegicus, UniProt P48548, E147Q); experiment: two-electrode voltage clamp in Xenopus oocytes, […] compound
T4 construct: gene Kcnj5
T4 sequence (P48548 whole entry E147Q): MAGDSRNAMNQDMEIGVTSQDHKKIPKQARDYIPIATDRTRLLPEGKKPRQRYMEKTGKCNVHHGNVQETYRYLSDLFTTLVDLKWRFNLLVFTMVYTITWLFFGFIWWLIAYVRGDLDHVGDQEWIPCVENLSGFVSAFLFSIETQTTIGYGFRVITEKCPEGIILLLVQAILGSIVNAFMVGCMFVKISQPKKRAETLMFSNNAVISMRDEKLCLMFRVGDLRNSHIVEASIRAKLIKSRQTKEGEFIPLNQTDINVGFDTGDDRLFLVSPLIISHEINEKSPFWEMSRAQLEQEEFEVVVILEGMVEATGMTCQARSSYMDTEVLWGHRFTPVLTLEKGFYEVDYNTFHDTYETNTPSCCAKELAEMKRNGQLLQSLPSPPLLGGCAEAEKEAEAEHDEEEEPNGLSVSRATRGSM
T4 sequence (P62871 2-340 partner): as the sequence (P62871 2-340 partner) above
T4 sequence (P63212 2-68 partner): as the sequence (P63212 2-68 partner) above

GIRK2 [5] = target: T3, GIRK2; experiment: two-electrode voltage clamp in Xenopus oocytes, GIRK2+Gβγ, […] compound
GIRK4 [6] = target: T1, GIRK4; experiment: two-electrode voltage clamp in Xenopus oocytes, GIRK4+Gβγ, […] compound

T1 sequence (P48548 whole entry): as the sequence (P48548 whole entry E147Q) above, with Q147E counted along it
T1 sequence (P62871 2-340 partner): as the sequence (P62871 2-340 partner) above
T1 sequence (P63212 2-68 partner): as the sequence (P63212 2-68 partner) above
T2 sequence (P48542 whole entry I82L): as the sequence (P48542 whole entry) above, with I82L counted along it
T2 sequence (P62871 2-340 partner): as the sequence (P62871 2-340 partner) above
T2 sequence (P63212 2-68 partner): as the sequence (P63212 2-68 partner) above

| inhibition at 100 µM (GIRK2 [5]) [%] | inhibition at 100 µM (GIRK4 [6]) [%] | SMILES | IC50 (GIRK4 [1]) [µM] | inhibition at 100 µM (GIRK2 [2]) [%] | IC50 (GIRK2 [3]) [µM] | two-electrode voltage clamp in Xenopus oocytes, 100 μM compound (GIRK4 [4]) |
| --- | --- | --- | --- | --- | --- | --- |
| – | – | CN(C)CCN(C)CCc1ccc(Cl)c(Cl)c1 [BD1047] | 17.4 ± 3.7 | 61 ± 1.9 | 75.4 ± 9.7 | It was observed that GIRK4 E147Q maintained the strong inhibition as WT |
| 31.1 ± 12 | 61.4 ± 2.6 | CN1CCN(CCc2ccc(Cl)c(Cl)c2)CC1 [BD1063] | – | – | – | – |

Source: publication PMC11031820, “Structural determinants of the direct inhibition of GIRK channels by Sigma-1 receptor antagonist” (The Journal of Biological Chemistry, 2024)
